In ChEMBL document CHEMBL4665869, “New thiazolopyrimidine as anticancer agents: Synthesis, biological evaluation, DNA binding, molecular modeling and ADMET study” (Bioorg Med Chem Lett, 2020):
Converted amounts (≈) assume the structure as drawn.

Tests used:
DNA = assay: Displacement of methyl green from DNA (unknown origin) assessed as DNA intercalation after 24 hrs by colorimetric assay; assay type: nucleic-acid assay
U-251 = assay: Growth inhibition of human U-251 cells at 10 uM relative to control; assay type: functional; details: read-out: GI
UO-31 = assay: Growth inhibition of human UO-31 cells at 10 uM relative to control; assay type: functional; details: read-out: GI
OVCAR-8 = assay: Growth inhibition of human OVCAR-8 cells at 10 uM relative to control; assay type: functional; details: read-out: GI
HL-60(TB) = assay: Growth inhibition of human HL-60(TB) cells at 10 uM relative to control; assay type: functional; details: read-out: GI
K562 = assay: Growth inhibition of human K562 cells at 10 uM relative to control; assay type: functional; details: read-out: GI
M14 = assay: Growth inhibition of human M14 cells at 10 uM relative to control; assay type: functional; details: read-out: GI
RXF 393 = assay: Growth inhibition of human RXF 393 cells at 10 uM relative to control; assay type: functional; details: read-out: GI
TK-10 = assay: Growth inhibition of human TK-10 cells at 10 uM relative to control; assay type: functional; details: read-out: GI
Malme-3M = assay: Growth inhibition of human Malme-3M cells at 10 uM relative to control; assay type: functional; details: read-out: GI
786-0 = assay: Growth inhibition of human 786-0 cells at 10 uM relative to control; assay type: functional; details: read-out: GI
SF-539 = assay: Growth inhibition of human SF-539 cells at 10 uM relative to control; assay type: functional; details: read-out: GI
HT-29 = assay: Growth inhibition of human HT-29 cells at 10 uM relative to control; assay type: functional; details: read-out: GI
Hs-578T = assay: Growth inhibition of human Hs-578T cells at 10 uM relative to control; assay type: functional; details: read-out: GI
SNB-19 = assay: Growth inhibition of human SNB-19 cells at 10 uM relative to control; assay type: functional; details: read-out: GI
ACHN = assay: Growth inhibition of human ACHN cells at 10 uM relative to control; assay type: functional; details: read-out: GI
UACC-257 = assay: Growth inhibition of human UACC-257 cells at 10 uM relative to control; assay type: functional; details: read-out: GI
OVCAR-4 = assay: Growth inhibition of human OVCAR-4 cells at 10 uM relative to control; assay type: functional; details: read-out: GI
T47D = assay: Growth inhibition of human T47D cells at 10 uM relative to control; assay type: functional; details: read-out: GI
CAKI-1 = assay: Growth inhibition of human CAKI-1 cells at 10 uM relative to control; assay type: functional; details: read-out: GI
RPMI-8226 = assay: Growth inhibition of human RPMI-8226 cells at 10 uM relative to control; assay type: functional; details: read-out: GI
SW-620 = assay: Growth inhibition of human SW-620 cells at 10 uM relative to control; assay type: functional; details: read-out: GI
LOX IMVI = assay: Growth inhibition of human LOX IMVI cells at 10 uM relative to control; assay type: functional; details: read-out: GI
SNB-75 = assay: Growth inhibition of human SNB-75 cells at 10 uM relative to control; assay type: functional; details: read-out: GI
HCC 2998 = assay: Growth inhibition of human HCC 2998 cells at 10 uM relative to control; assay type: functional; details: read-out: GI
MCF7 = assay: Growth inhibition of human MCF7 cells at 10 uM relative to control; assay type: functional; details: read-out: GI
KM12 = assay: Growth inhibition of human KM12 cells at 10 uM relative to control; assay type: functional; details: read-out: GI
MDA-MB-468 = assay: Growth inhibition of human MDA-MB-468 cells at 10 uM relative to control; assay type: functional; details: read-out: GI
SK-MEL-28 = assay: Growth inhibition of human SK-MEL-28 cells at 10 uM relative to control; assay type: functional; details: read-out: GI
DU-145 = assay: Growth inhibition of human DU-145 cells at 10 uM relative to control; assay type: functional; details: read-out: GI
OVCAR-5 = assay: Growth inhibition of human OVCAR-5 cells at 10 uM relative to control; assay type: functional; details: read-out: GI
A498 = assay: Growth inhibition of human A498 cells at 10 uM relative to control; assay type: functional; details: read-out: GI
COLO 205 = assay: Growth inhibition of human COLO 205 cells at 10 uM relative to control; assay type: functional; details: read-out: GI
HCT-116 = assay: Growth inhibition of human HCT-116 cells at 10 uM relative to control; assay type: functional; details: read-out: GI
NCI-H23 = assay: Growth inhibition of human NCI-H23 cells at 10 uM relative to control; assay type: functional; details: read-out: GI
NCI-H322M = assay: Growth inhibition of human NCI-H322M cells at 10 uM relative to control; assay type: functional; details: read-out: GI
BT-549 = assay: Growth inhibition of human BT-549 cells at 10 uM relative to control; assay type: functional; details: read-out: GI
NCI/ADR-RES = assay: Growth inhibition of human NCI/ADR-RES cells at 10 uM relative to control; assay type: functional; details: read-out: GI
HOP-92 = assay: Growth inhibition of human HOP-92 cells at 10 uM relative to control; assay type: functional; details: read-out: GI
SN12C = assay: Growth inhibition of human SN12C cells at 10 uM relative to control; assay type: functional; details: read-out: GI
SK-MEL-5 = assay: Growth inhibition of human SK-MEL-5 cells at 10 uM relative to control; assay type: functional; details: read-out: GI
CCRF-CEM = assay: Growth inhibition of human CCRF-CEM cells at 10 uM relative to control; assay type: functional; details: read-out: GI
NCI-H460 = assay: Growth inhibition of human NCI-H460 cells at 10 uM relative to control; assay type: functional; details: read-out: GI
MDA-MB-231 = assay: Growth inhibition of human MDA-MB-231 cells at 10 uM relative to control; assay type: functional; details: read-out: GI
HCT-15 = assay: Growth inhibition of human HCT-15 cells at 10 uM relative to control; assay type: functional; details: read-out: GI
A549 = assay: Growth inhibition of human A549 cells at 10 uM relative to control; assay type: functional; details: read-out: GI
SR = assay: Growth inhibition of human SR cells at 10 uM relative to control; assay type: functional; details: read-out: GI
NCI-H522 = assay: Growth inhibition of human NCI-H522 cells at 10 uM relative to control; assay type: functional; details: read-out: GI
IGROV-1 = assay: Growth inhibition of human IGROV-1 cells at 10 uM relative to control; assay type: functional; details: read-out: GI
UACC-62 = assay: Growth inhibition of human UACC-62 cells at 10 uM relative to control; assay type: functional; details: read-out: GI
NCI-H226 = assay: Growth inhibition of human NCI-H226 cells at 10 uM relative to control; assay type: functional; details: read-out: GI
SK-MEL-2 = assay: Growth inhibition of human SK-MEL-2 cells at 10 uM relative to control; assay type: functional; details: read-out: GI
SF-295 = assay: Growth inhibition of human SF-295 cells at 10 uM relative to control; assay type: functional; details: read-out: GI
SK-OV-3 = assay: Growth inhibition of human SK-OV-3 cells at 10 uM relative to control; assay type: functional; details: read-out: GI
HOP-62 = assay: Growth inhibition of human HOP-62 cells at 10 uM relative to control; assay type: functional; details: read-out: GI
MDA-MB-435 = assay: Growth inhibition of human MDA-MB-435 cells at 10 uM relative to control; assay type: functional; details: read-out: GI
MOLT-4 = assay: Growth inhibition of human MOLT-4 cells at 10 uM relative to control; assay type: functional; details: read-out: GI
SF-268 = assay: Growth inhibition of human SF-268 cells at 10 uM relative to control; assay type: functional; details: read-out: GI

Clc1ccc(/C=C/C2=CC(c3ccc(Cl)cc3)N3C=CSC3=N2)cc1 (stereo unspecified)
IC50 (DNA): 56.33 µg/mL (≈ 146 µM)

COc1ccc(/C=C/C2=CC(c3ccc(OC)c(OC)c3)N3C=CSC3=N2)cc1OC (stereo unspecified)
inhibition of growth at 10 µM (U-251): < 10% | inhibition of growth at 10 µM (UO-31): 11.3% | inhibition of growth at 10 µM (OVCAR-8): < 10% | inhibition of growth at 10 µM (HL-60(TB)): < 10% | inhibition of growth at 10 µM (K562): < 10% | inhibition of growth at 10 µM (M14): < 10% | inhibition of growth at 10 µM (RXF 393): < 10% | inhibition of growth at 10 µM (TK-10): < 10% | inhibition of growth at 10 µM (Malme-3M): < 10% | inhibition of growth at 10 µM (786-0): < 10% | inhibition of growth at 10 µM (SF-539): < 10% | inhibition of growth at 10 µM (HT-29): < 10% | inhibition of growth at 10 µM (Hs-578T): < 10% | inhibition of growth at 10 µM (SNB-19): < 10% | inhibition of growth at 10 µM (ACHN): < 10% | inhibition of growth at 10 µM (UACC-257): 12.8% | inhibition of growth at 10 µM (OVCAR-4): < 10% | inhibition of growth at 10 µM (T47D): < 10% | inhibition of growth at 10 µM (CAKI-1): < 10% | inhibition of growth at 10 µM (RPMI-8226): < 10% | inhibition of growth at 10 µM (SW-620): < 10% | inhibition of growth at 10 µM (LOX IMVI): < 10% | inhibition of growth at 10 µM (SNB-75): < 10% | inhibition of growth at 10 µM (HCC 2998): < 10% | inhibition of growth at 10 µM (MCF7): < 10% | inhibition of growth at 10 µM (KM12): < 10% | inhibition of growth at 10 µM (MDA-MB-468): < 10% | inhibition of growth at 10 µM (SK-MEL-28): < 10% | inhibition of growth at 10 µM (DU-145): < 10% | inhibition of growth at 10 µM (OVCAR-5): < 10% | inhibition of growth at 10 µM (A498): 25.6% | inhibition of growth at 10 µM (COLO 205): < 10% | inhibition of growth at 10 µM (HCT-116): < 10% | inhibition of growth at 10 µM (NCI-H23): < 10% | inhibition of growth at 10 µM (NCI-H322M): < 10% | inhibition of growth at 10 µM (BT-549): < 10% | inhibition of growth at 10 µM (NCI/ADR-RES): < 10% | inhibition of growth at 10 µM (HOP-92): < 10% | inhibition of growth at 10 µM (SN12C): < 10% | inhibition of growth at 10 µM (SK-MEL-5): < 10% | inhibition of growth at 10 µM (CCRF-CEM): < 10% | inhibition of growth at 10 µM (NCI-H460): < 10% | IC50 (DNA): 30.05 µg/mL (≈ 68.8 µM) | inhibition of growth at 10 µM (MDA-MB-231): < 10% | inhibition of growth at 10 µM (HCT-15): < 10% | inhibition of growth at 10 µM (A549): < 10% | inhibition of growth at 10 µM (SR): 13.8% | inhibition of growth at 10 µM (NCI-H522): < 10% | inhibition of growth at 10 µM (IGROV-1): < 10% | inhibition of growth at 10 µM (UACC-62): < 10% | inhibition of growth at 10 µM (NCI-H226): < 10% | inhibition of growth at 10 µM (SK-MEL-2): < 10% | inhibition of growth at 10 µM (SF-295): < 10% | inhibition of growth at 10 µM (SK-OV-3): < 10% | inhibition of growth at 10 µM (HOP-62): < 10% | inhibition of growth at 10 µM (MDA-MB-435): < 10% | inhibition of growth at 10 µM (MOLT-4): < 10% | inhibition of growth at 10 µM (SF-268): < 10%

CC1=CSC2=NC(/C=C/c3ccc(C)cc3)=CC(c3ccc(C)cc3)N12 (stereo unspecified)
IC50 (DNA): 83.41 µg/mL (≈ 233 µM)

COc1ccc(/C=C/C2=CC(c3ccc(OC)cc3)N3C(C)=CSC3=N2)cc1 (stereo unspecified)
IC50 (DNA): 42.5 µg/mL (≈ 109 µM)
